# Measured values from patent publication US20130273649A1, “Culture medium for pluripotent stem cells” (UNIVERSITY OF SOUTHERN CALIFORNIA, priority 2012, published 2013).
# Columns and labels:
# Type in all cases: cell-based
# mouse EpiSCs = experiment: Mouse EpiSC self-renewal culture; conditions: for EpiSC self-renewal / maintenance of undifferentiated state: CD1 mouse EpiSCs, GMEM/10% FBS, no FGF2/activin unless named, CHIR 3 μM, PD0325901 1 μM, XAV939 2 μM, IWR-1 2.5 μM, IWP-2 2.5 μM, Pyrvinium 100 nM
# Text: We therefore reasoned that if CHIR induces EpiSC differentiation through stabilization of β-catenin, de-stabilization of β-catenin might promote EpiSC self-renewal. We tested this hypothesis by administering the tankyrase inhibitor XAV939 to mouse EpiSC cultures. XAV939-mediated inhibition of tankyrase stabilizes Axin, leading to the formation of the β-catenin destruction complex, composed of GSK3, Axin and adenomatous polyposis coli (APC) (Huang et al., 2009). […] EpiSCs cultured in CHIR/XAV could be routinely passaged by single-cell dissociation and replating onto gelatin-coated dishes, and could be cryo-preserved and recovered at high efficiency by standard techniques.
# final concentrations: CHIR99021 (3 μM), PD0325901 (1 μM), XAV939 (Sigma, 2 μM), IWR-1 (Sigma, 2.5 μM), IWP-2 (Stemgent, 2.5 μM), Pyrvinium (Sigma, 100 nM), recombinant human FGF2 (PeproTech, 10 ng/ml), and recombinant human activin A (PeproTech, 10 ng/ml). CHIR99021 and PD0325901 were synthesized in the Division of Signal Transduction Therapy, University of Dundee, UK.
# The basal medium for mouse EpiSC culture is the conventional mouse ESC medium, which consists of GMEM (Sigma) supplemented with 10% fetal bovine serum (FBS) (Hyclone), 2 mM L-glutamine (Invitrogen), 1 mM sodium pyruvate (Invitrogen), 1% nonessential amino acids (Invitrogen), and 0.1 mM (3-mercaptoethanol. Mouse EpiSCs were derived and maintained in the basal medium supplemented with FGF2/activin, CHIR/XAV, or CHIR/IWR-1. The basal medium for rat EpiSC culture is N2B27 (Tong et al., 2011), which was prepared by mixing 500 ml of DMEM/F12 (Invitrogen) with 500 ml of Neurobasal™ medium (Invitrogen), and adding 5 ml of N2 (Invitrogen), 10 ml of B27 (Invitrogen), 5 ml of Glutamax™ (Invitrogen), and 1 ml of 0.1 M β-mercaptoethanol (Sigma). The basal medium for human ESC culture consists of Knockout™ DMEM/F12 supplemented with 20% KSR (Invitrogen), 1% nonessential amino acids, 2 mM L-glutamine, and 0.1 mM (3-mercaptoethanol. Human ESCs were cultured in the basal medium supplemented with FGF2, CHIR/XAV, or CHIR/IWR-1.
# Post-implantation epiblasts were isolated from mouse or rat embryos and dissociated into small clumps as previously described (Chenoweth and Tesar, 2010). Epiblast fragments were placed into 4-well plates pre-coated with 0.1% gelatin (for mouse epiblasts) or pre-seeded with γ-irradiated mouse embryonic fibroblasts (MEFs) (for rat epiblasts) and cultured in either the FGF2/activin or the CHIR/XAV conditions. Emerging EpiSCs were trypsinized and expanded every 2-3 days at a subculture ratio of 1:4. Animal experiments were performed according to the investigator's protocols approved by the University of Southern California Institutional Animal Care and Use Committee.
# [1] = system: β-catenin/TCF-responsive TOPFlash reporter; experiment: TOPFlash reporter assay in H9 human ESCs; conditions: 24 h, added to CHIR
# Method: (A) TOPFlash™ assay in H9 human ESCs subjected to the indicated treatments for 24 h. Data represent mean±s.d. of three biological replicates. (B) Representative phase contrast and alkaline phosphatase (AP) staining images of H9 human ESCs cultured in the indicated conditions for 3 passages. (C) Phase contrast images of H9 human ESCs cultured in CHIR/XAV or CHIR/IWR-1 for 11 passages. (D) Colony forming efficiency assay of H9 human ESCs cultured in FGF2 or CHIR/IWR-1 conditions. Data represent mean±s.d. of three biological replicates. Right panel: a representative image showing AP staining of colonies formed from H9 human ESCs cultured in either FGF2 or CHIR/IWR-1 condition. (E) Human ESCs cultured in CHIR/IWR-1 for 11 passages were immunostained with the indicated antibodies. (F) Embryoid bodies (EBs) were generated from H9 human ESCs cultured in CHIR/IWR-1 for 11 passages. The outgrowths of EBs were immunostained with the indicated antibodies. (G) H&E staining of teratomas generated from H9 ESCs cultured in CHIR/IWR-1 for 20 passages. (H) Western blot analysis of Axin1 and Axin2 expression in HES3 human ESCs treated with the indicated cytokines/inhibitors for 24 h. (I) Immunofluorescence images of H9 human ESCs (passage 5 in CHIR) overexpressing Flag-tagged Axin2. (J) Representative phase contrast and immunofluorescence images of HES2 human ESCs overexpressing ΔNβ-catenin-ERT2 at passage 5 in basal medium only. These cells were cultured in basal medium only for more than 10 passages and remained morphologically undifferentiated. (K) Phase contrast images of HES2 human ESCs overexpressing ΔNβ-catenin (left panel, passage 2 in basal medium/FGF2) or ΔNβ-catenin/A295W/I296W mutant (right panel, passage 5 in basal medium only). Scale bars, 50 μm (B, C, E-G, and I-K). (L) Model of mouse EpiSC and human ESC self-renewal mediated by β-catenin. In the absence of Wnt or GSK3 inhibitor, a β-catenin destruction complex, containing Axin1, GSK3, and APC is formed, leading to the degradation of β-catenin and differentiation (left). In the presence of Wnt or GSK3 inhibitor, β-catenin is stabilized and can initiate cellular responses related to both self-renewal and differentiation. Stabilized β-catenin induces differentiation when it translocates into the nucleus and binds TCFs to activate downstream targets (middle). Addition of XAV or IWR-1 stabilizes Axin2. […]
# (§1) For quantifying relative Oct3/4 enhancer activities, pGL3-Oct4 DE and pGL3-Oct4 PE plasmids (gifts from Hans Schöler's lab) were co-transfected with the Renilla vector, using the Amaxa™ Transfection Kit (Lonza). […] For quantifying relative β-catenin/Tcf transcriptional activity, pGL2-SuperTOP™ plasmid (gift from Randall Moon) was co-transfected with the Renilla vector and assayed accordingly.
# Axin1 [2] = experiment: Western blot of Axin1 in human ESCs; conditions: human ESCs treated 24 h
# Method: (A) TOPFlash™ assay in H9 human ESCs subjected to the indicated treatments for 24 h. Data represent mean±s.d. of three biological replicates. (B) Representative phase contrast and alkaline phosphatase (AP) staining images of H9 human ESCs cultured in the indicated conditions for 3 passages. (C) Phase contrast images of H9 human ESCs cultured in CHIR/XAV or CHIR/IWR-1 for 11 passages. (D) Colony forming efficiency assay of H9 human ESCs cultured in FGF2 or CHIR/IWR-1 conditions. Data represent mean±s.d. of three biological replicates. Right panel: a representative image showing AP staining of colonies formed from H9 human ESCs cultured in either FGF2 or CHIR/IWR-1 condition. (E) Human ESCs cultured in CHIR/IWR-1 for 11 passages were immunostained with the indicated antibodies. (F) Embryoid bodies (EBs) were generated from H9 human ESCs cultured in CHIR/IWR-1 for 11 passages. The outgrowths of EBs were immunostained with the indicated antibodies. (G) H&E staining of teratomas generated from H9 ESCs cultured in CHIR/IWR-1 for 20 passages. (H) Western blot analysis of Axin1 and Axin2 expression in HES3 human ESCs treated with the indicated cytokines/inhibitors for 24 h. (I) Immunofluorescence images of H9 human ESCs (passage 5 in CHIR) overexpressing Flag-tagged Axin2. […]
# [3] = system: β-catenin/TCF-responsive TOPFlash reporter; experiment: TOPFlash reporter assay in mouse EpiSCs; conditions: CD1 mouse EpiSCs, 12 hours, added to CHIR
# Method: (§2) (A) TOPFlash™ assay in CD1 mouse EpiSCs treated with the indicated inhibitors for 12 hours. Data represent mean±s.d. of three biological replicates. (B) Representative phase contrast images of CD1 mouse EpiSCs cultured in the indicated conditions for 7 days. (C) Western blot analysis of CD1 mouse EpiSCs treated with the indicated inhibitors for 12 h. (D) qRT-PCR analysis of Axin1 and Axin2 mRNA levels in CD1 mouse EpiSCs stably transfected with Axin1 shRNA or Axin2 shRNA. Data represent mean±s.d. of three biological replicates. (E) Colony assay on CD1 mouse EpiSCs stably transfected with scramble, Axin1, or Axin2 shRNAs. Cells were plated onto a 6-well plate at a density of 5,000 cells/well and cultured in CHIR/IWR-1. Colonies were counted 7 days after plating. Data represent the total combined numbers of colonies from two independent experiments in which each shRNA-transfected group was cultured in one well of a 6-well plate. (F) Representative phase contrast images of CD 1 mouse EpiSCs stably transfected with the indicated shRNAs and cultured in CHIR/IWR-1 for 7 days. (G) Western blot analysis of CD1 mouse EpiSCs overexpressing Flag-tagged Axin1 or Axin2. (H) Representative phase contrast images of CD1 mouse EpiSCs overexpressing Axin1 or Axin2 and cultured in CHIR for 7 days. Axin2-overexpressing EpiSCs could be continually passaged in CHIR alone. Scale bars, 50 μm (B, F and H)
# Next, we investigated the mechanism by which CHIR/XAV promotes EpiSC self-renewal. By inhibiting GSK3 phosphorylation of β-catenin, CHIR stabilizes β-catenin, which then trans-locates to the nucleus and forms complexes with DNA-binding proteins, including TCFs, to activate transcription (Logan and Nusse, 2004). […]
# as §1
# Axin2 [4] = experiment: Western blot of Axin2 in mouse EpiSCs; conditions: CD1 mouse EpiSCs treated 12 h
# Axin1 [5] = experiment: Western blot of Axin1 in mouse EpiSCs; conditions: CD1 mouse EpiSCs treated 12 h
# Method: as §2
# Next, we investigated the mechanism by which CHIR/XAV promotes EpiSC self-renewal. By inhibiting GSK3 phosphorylation of β-catenin, CHIR stabilizes β-catenin, which then trans-locates to the nucleus and forms complexes with DNA-binding proteins, including TCFs, to activate transcription (Logan and Nusse, 2004). […] Axin has two isoforms, Axin1 and Axin2. […] The expression level of Axin2, but not Axin1, was also elevated by CHIR treatment (FIG. 4C), an outcome consistent with previous findings that Axin2 is a direct downstream target of Wnt/β-catenin signaling (Jho et al., 2002). […]
# Axin2 [6] = experiment: Western blot of Axin2 in human ESCs; conditions: human ESCs treated 24 h
# [7] = system: β-catenin-TCF transcriptional activity; experiment: β-catenin-TCF transcriptional activity induced by CHIR; conditions: data not shown
# Text: The role of β-catenin in human ESC self-renewal has been controversial. […] Our finding that activation of β-catenin can promote human ESC self-renewal or differentiation, and that the respective outcome is dictated by whether β-catenin translocates into the nucleus, provides a rational explanation for earlier, seemingly paradoxical results. […] Some of the contradicted results on the role of β-catenin in human ESC self-renewal, therefore, might be attributable to variations in the subcellular localization of β-catenin under different culture conditions.
compound,measurement,setting,value
4-hydroxytamoxifen [4-OHT],differentiation of ΔNβ-catenin-ERT2-overexpressing EpiSCs,"mouse EpiSCs; 1 μM 4-OHT, even in the presence of IWR-1",resulted in rapid differentiation
Cc1ccc2nc(NC(=O)CSc3nc4c(c(=O)n3-c3ccccc3)SCC4)sc2c1 [IWP-2],effect on TOPFlash activity induced by CHIR,[1],only partially suppressed
same,EpiSC self-renewal / maintenance of undifferentiated state,mouse EpiSCs,unable to support EpiSC self-renewal
"O=C(Nc1cccc2cccnc12)c1ccc(N2C(=O)[C@@H]3[C@H](C2=O)[C@@H]2C=C[C@H]3C2)cc1 [IWR-1, 4-(1,3,3a,4,7,7a-Hexahydro-1,3-dioxo-4,7-methano-2H-isoindol-2-yl)-N-8-quinolinyl-Benzamide]",amount of Axin1 protein,Axin1 [2],significantly increased
same,effect on TOPFlash activity induced by CHIR,[1],abolished this TOPFlash™ activity
same,effect on TOPFlash activity induced by CHIR,[3],blocked TOPFlash™ reporter activity induced by CHIR
same,amount of Axin2 protein,Axin2 [4],significantly increased
same,amount of Axin1 protein,Axin1 [5],significantly increased
same,amount of Axin2 protein,Axin2 [6],significantly increased
Cc1cc(/C=C/c2ccc3cc(N(C)C)ccc3[n+]2C)c(C)n1-c1ccccc1 [Pyrvinium],EpiSC self-renewal / maintenance of undifferentiated state,mouse EpiSCs,unable to support EpiSC self-renewal
bovine serum albumin: bovine serum albumin,effect on β-catenin-TCF transcriptional activity induced by CHIR,[7],partially block
